Measurements published in US20020137929A1, “1 - (3-heterocyclylphenyl) isothiourea, -isourea, -guanidine and -amidine herbicidal agents” (Intellectual Property Department, BASF Aktiengesellschaft, priority 1998, published 2002).

Assays:
[1] = tested on: SAGPY (Arrowhead (Pygmaea)); assay: Postemergence weed control under flooded paddy conditions; type: in vivo, Sagittaria pygmaea; details: postemergence weeds
Outline: (§1)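 With weeds 3 to 5 cm tall and rice at the 1.5 to 2.5 leaf stage, containers were flooded and water held 1.5 to 3 cm above soil. Compounds in 50/50 v/v aqueous/acetone went into the flood water at about 0.0313 to 0.500 kg/ha a.i. Effects were visually rated 0–9 against controls after three to four weeks in the greenhouse.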

[2] = tested on: ECHORC (Watergrass (Calif.)); assay: as above; type: in vivo, Echinochloa oryzoides; details: postemergence weeds
Outline: as §1

[3] = tested on: IPOHE (Morningglory, Ivyleaf); assay: Preemergence herbicidal evaluation; type: in vivo, Ipomoea hederacea; details: rated 4-5 weeks after treatment; for IPOHE rating: preemergence, 0-9 scale
Outline: (§2)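 Preemergence soil application of compound, sprayed in aqueous acetone at rates equivalent to about 0.0156 to 0.500 kg per hectare onto freshly sown cups. Plant response was judged by eye on a 0-9 scale four to five weeks later.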

[4] = tested on: ZEAMX (Corn, Field); assay: Preemergence herbicidal evaluation; type: in vivo, Zea mays; details: rated 4-5 weeks after treatment; for ZEAMX rating: preemergence, 0-9 scale
Outline: as §2

[5] = tested on: TRZAWR (Wheat, Winter, cv Riband); assay: Postemergence herbicidal evaluation; type: in vivo, Triticum aestivum; details: postemergence
Outline: (§3)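 Two-week-old seedlings sprayed with compound in 50/50 acetone/water plus 0.5% TWEEN 20, at about 0.0156 to 0.500 kg/ha, nozzle at 40 psi. Kept in greenhouse; rated visually 4-5 weeks after treatment on a 0-9 scale versus control, repeat tests averaged.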

[6] = tested on: SETVI (Foxtail, Green); assay: Postemergence herbicidal evaluation; type: in vivo, Setaria viridis; details: postemergence
Outline: as §3

[7] = tested on: ECHORC (Watergrass (Calif.)); assay: Preemergence weed control under flooded paddy conditions; type: in vivo, Echinochloa oryzoides; details: rated 3-4 weeks after treatment
Outline: (§4)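 Silt loam, seeds in top 0.5 cm; flood held 1.5-3 cm; test cpd as acetone/water 50/50 into flood water, ~0.0313-0.500 kg/ha a.i.; greenhouse 3-4 wk; visual 0-9 score vs control.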

[8] = tested on: IPOHE (Morningglory, Ivyleaf); assay: Postemergence herbicidal evaluation; type: in vivo, Ipomoea hederacea; details: postemergence
Outline: as §3

[9] = tested on: CYPIR (Rice Flatsedge); assay: Preemergence weed control under flooded paddy conditions; type: in vivo, Cyperus iria; details: rated 3-4 weeks after treatment
Outline: as §4

[10] = tested on: GALAP (Galium); assay: Postemergence herbicidal evaluation; type: in vivo, Galium aparine; details: postemergence
Outline: as §3

[11] = tested on: ABUTH (Velvetleaf); assay: Preemergence herbicidal evaluation; type: in vivo, Abutilon theophrasti; details: rated 4-5 weeks after treatment; for ABUTH rating: preemergence, 0-9 scale
Outline: as §2

[12] = tested on: MOOVA (Monochoria); assay: Preemergence weed control under flooded paddy conditions; type: in vivo, Monochoria vaginalis; details: rated 3-4 weeks after treatment
Outline: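 First, seeds or propagules go into the top 0.5 cm of silt loam; next, water is held 1.5 to 3 cm over the soil; then compound (50/50 acetone/water) is pipetted into it at about 0.0313 to 0.500 kg/ha; finally plants are rated visually 0-9 after three to four weeks.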

[13] = tested on: ECHCG (Barnyardgrass); assay: Preemergence herbicidal evaluation; type: in vivo, Echinochloa crus-galli; details: rated 4-5 weeks after treatment; for ECHCG rating: preemergence, 0-9 scale
Outline: as §2

[14] = tested on: SETVI (Foxtail, Green); assay: Preemergence herbicidal evaluation; type: in vivo, Setaria viridis; details: rated 4-5 weeks after treatment; for SETVI rating: preemergence, 0-9 scale
Outline: as §2

[15] = Rate 0.0313 kg/ha, rated 3 to 4 weeks after treatment
[16] = Rate 0.0625 kg/ha, rated 3 to 4 weeks after treatment
[17] = Rate 0.1250 kg/ha, rated 3 to 4 weeks after treatment
[18] = Rate 0.2500 kg/ha, rated 3 to 4 weeks after treatment
[19] = rate 0.0313 kg/ha, 3-4 weeks after treatment
[20] = rate 0.0625 kg/ha, 3-4 weeks after treatment
[21] = rate 0.1250 kg/ha, 3-4 weeks after treatment
[22] = rate 0.2500 kg/ha, 3-4 weeks after treatment

## CN1C(=O)C(CC(=O)Nc2ccccc2)SC1=Nc1cc(-n2c(=O)cc(C(F)(F)F)n(C)c2=O)c(F)cc1Cl (stereo not shown) [Compound 91, 2-{{2-Chloro-5-[3,6-dihydro-3-methyl-2,6-dioxo-4-(trifluoromethyl)-1(2H)-pyrimidinyl]-4-fluorophenyl}imino}-3-methyl-4-oxo-5-thiazolidineacetanilide]
[1]; [15]
  Herbicidal rating SAGPY: 0.0
[1]; [16]
  Herbicidal rating SAGPY: 0.0
[1]; [17]
  Herbicidal rating SAGPY: 0.0
[1]; [18]
  Herbicidal rating SAGPY: 0.0
[2]; [15]
  Herbicidal rating ECHORC: 0.0
[2]; [16]
  Herbicidal rating ECHORC: 0.0
[2]; [17]
  Herbicidal rating ECHORC: 2.0
[2]; [18]
  Herbicidal rating ECHORC: 4.0
[3]; 0.1250 kg/ha
  IPOHE rating: 0.0
[3]; 0.2500 kg/ha
  IPOHE rating: 0.0
[4]; 0.1250 kg/ha
  ZEAMX rating: 0.0
[4]; 0.2500 kg/ha
  ZEAMX rating: 0.0
[5]; rate 0.0158 kg/ha
  TRZAWR herbicidal rating: 2.5
[5]; rate 0.0315 kg/ha
  TRZAWR herbicidal rating: 3.0
[5]; rate 0.0630 kg/ha
  TRZAWR herbicidal rating: 4.0
[6]; rate 0.0158 kg/ha
  SETVI herbicidal rating: 0.0
[6]; rate 0.0315 kg/ha
  SETVI herbicidal rating: 0.0
[6]; rate 0.0630 kg/ha
  SETVI herbicidal rating: 0.0
[7]; 0.0313 kg/ha
  ECHORC herbicidal effect rating: 0.0
[7]; 0.0625 kg/ha
  ECHORC herbicidal effect rating: 0.0
[7]; 0.1250 kg/ha
  ECHORC herbicidal effect rating: 2.0
[7]; 0.2500 kg/ha
  ECHORC herbicidal effect rating: 4.0
[8]; rate 0.0158 kg/ha
  IPOHE herbicidal rating: 7.0
[8]; rate 0.0315 kg/ha
  IPOHE herbicidal rating: 9.0
[8]; rate 0.0630 kg/ha
  IPOHE herbicidal rating: 9.0
[9]; 0.0313 kg/ha
  CYPIR herbicidal effect rating: 0.0
[9]; 0.0625 kg/ha
  CYPIR herbicidal effect rating: 0.0
[9]; 0.1250 kg/ha
  CYPIR herbicidal effect rating: 0.0
[9]; 0.2500 kg/ha
  CYPIR herbicidal effect rating: 0.0
[10]; rate 0.0158 kg/ha
  GALAP herbicidal rating: 0.0
[10]; rate 0.0315 kg/ha
  GALAP herbicidal rating: 0.0
[10]; rate 0.0630 kg/ha
  GALAP herbicidal rating: 0.0
[11]; 0.1250 kg/ha
  ABUTH rating: 4.0
[11]; 0.2500 kg/ha
  ABUTH rating: 9.0
[12]; 0.0313 kg/ha
  MOOVA herbicidal effect rating: 9.0
[12]; 0.0625 kg/ha
  MOOVA herbicidal effect rating: 9.0
[12]; 0.1250 kg/ha
  MOOVA herbicidal effect rating: 9.0
[12]; 0.2500 kg/ha
  MOOVA herbicidal effect rating: 9.0
[13]; 0.1250 kg/ha
  ECHCG rating: 0.0
[13]; 0.2500 kg/ha
  ECHCG rating: 0.0
[14]; 0.1250 kg/ha
  SETVI rating: 0.0
[14]; 0.2500 kg/ha
  SETVI rating: 0.0

## CCOC(=O)/C=C1/S/C(=N/c2cc(-n3c(=O)cc(C(F)(F)F)n(C)c3=O)c(F)cc2Cl)N(CC(=O)OCC)C1=O [Compound 14]
[1]; [19]
  Herbicidal rating SAGPY: 0.0
[1]; [20]
  Herbicidal rating SAGPY: 0.0
[1]; [21]
  Herbicidal rating SAGPY: 0.0
[1]; [22]
  Herbicidal rating SAGPY: 0.0
[2]; [19]
  Herbicidal rating ECHORC: 0.8
[2]; [20]
  Herbicidal rating ECHORC: 2.3
[2]; [21]
  Herbicidal rating ECHORC: 3.8
[2]; [22]
  Herbicidal rating ECHORC: 7.0
[3]; rate 0.0313 kg/ha
  IPOHE preemergence herbicidal rating: 0.0
[3]; rate 0.0625 kg/ha
  IPOHE preemergence herbicidal rating: 1.5
[3]; rate 0.1250 kg/ha
  IPOHE preemergence herbicidal rating: 7.5
[3]; rate 0.2500 kg/ha
  IPOHE preemergence herbicidal rating: 9.0
[3]; rate 0.5000 kg/ha
  IPOHE preemergence herbicidal rating: 9.0
[4]; rate 0.0313 kg/ha
  ZEAMX preemergence herbicidal rating: 0.0
[4]; rate 0.0625 kg/ha
  ZEAMX preemergence herbicidal rating: 0.0
[4]; rate 0.1250 kg/ha
  ZEAMX preemergence herbicidal rating: 1.5
[4]; rate 0.2500 kg/ha
  ZEAMX preemergence herbicidal rating: 2.0
[4]; rate 0.5000 kg/ha
  ZEAMX preemergence herbicidal rating: 3.0
[5]; rate 0.0156 kg/ha
  TRZAWR herbicidal rating: 5.5
[5]; rate 0.0313 kg/ha
  TRZAWR herbicidal rating: 6.0
[5]; rate 0.0625 kg/ha
  TRZAWR herbicidal rating: 7.5
[5]; rate 0.1250 kg/ha
  TRZAWR herbicidal rating: 9.0
[6]; rate 0.0156 kg/ha
  SETVI herbicidal rating: 7.0
[6]; rate 0.0313 kg/ha
  SETVI herbicidal rating: 8.0
[6]; rate 0.0625 kg/ha
  SETVI herbicidal rating: 9.0
[6]; rate 0.1250 kg/ha
  SETVI herbicidal rating: 9.0
[7]; 0.0313 kg/ha
  Herbicidal rating ECHORC: 1.5
[7]; 0.0625 kg/ha
  Herbicidal rating ECHORC: 4.5
[7]; 0.1250 kg/ha
  Herbicidal rating ECHORC: 7.5
[7]; 0.2500 kg/ha
  Herbicidal rating ECHORC: 9.0
[8]; rate 0.0156 kg/ha
  IPOHE herbicidal rating: 9.0
[8]; rate 0.0313 kg/ha
  IPOHE herbicidal rating: 9.0
[8]; rate 0.0625 kg/ha
  IPOHE herbicidal rating: 9.0
[8]; rate 0.1250 kg/ha
  IPOHE herbicidal rating: 9.0
[9]; 0.0313 kg/ha
  Herbicidal rating CYPIR: 2.0
[9]; 0.0625 kg/ha
  Herbicidal rating CYPIR: 2.5
[9]; 0.1250 kg/ha
  Herbicidal rating CYPIR: 4.5
[9]; 0.2500 kg/ha
  Herbicidal rating CYPIR: 0.0
[10]; rate 0.0156 kg/ha
  GALAP herbicidal rating: 2.0
[10]; rate 0.0313 kg/ha
  GALAP herbicidal rating: 4.0
[10]; rate 0.0625 kg/ha
  GALAP herbicidal rating: 5.0
[10]; rate 0.1250 kg/ha
  GALAP herbicidal rating: 6.0
[11]; rate 0.0313 kg/ha
  ABUTH preemergence herbicidal rating: 1.0
[11]; rate 0.0625 kg/ha
  ABUTH preemergence herbicidal rating: 2.0
[11]; rate 0.1250 kg/ha
  ABUTH preemergence herbicidal rating: 9.0
[11]; rate 0.2500 kg/ha
  ABUTH preemergence herbicidal rating: 9.0
[11]; rate 0.5000 kg/ha
  ABUTH preemergence herbicidal rating: 9.0
[12]; 0.0313 kg/ha
  Herbicidal rating MOOVA: 4.5
[12]; 0.0625 kg/ha
  Herbicidal rating MOOVA: 4.5
[12]; 0.1250 kg/ha
  Herbicidal rating MOOVA: 4.5
[12]; 0.2500 kg/ha
  Herbicidal rating MOOVA: 0.0
[13]; rate 0.0313 kg/ha
  ECHCG preemergence herbicidal rating: 0.0
[13]; rate 0.0625 kg/ha
  ECHCG preemergence herbicidal rating: 0.0
[13]; rate 0.1250 kg/ha
  ECHCG preemergence herbicidal rating: 1.0
[13]; rate 0.2500 kg/ha
  ECHCG preemergence herbicidal rating: 3.0
[13]; rate 0.5000 kg/ha
  ECHCG preemergence herbicidal rating: 6.0
[14]; rate 0.0313 kg/ha
  SETVI preemergence herbicidal rating: 0.5
[14]; rate 0.0625 kg/ha
  SETVI preemergence herbicidal rating: 0.5
[14]; rate 0.1250 kg/ha
  SETVI preemergence herbicidal rating: 6.5
[14]; rate 0.2500 kg/ha
  SETVI preemergence herbicidal rating: 9.0
[14]; rate 0.5000 kg/ha
  SETVI preemergence herbicidal rating: 9.0
